As usually defined, the inhibition is how much of the control response was suppressed.

The results in this text go back to patent EP2272817A1, “PAI-1 INHIBITOR” (Institute of Medicinal Molecular Design, Inc., priority 2008, dated 2009).

This assay addresses recombinant human PAI-1 (Homo sapiens, UniProt P05121). Briefly: Test Example 2: Human PAI-1 Inhibitory Activity (pH 7.4 HEPES buffer, 10 minutes incubation with two-chain tPA). The arrangement: purchased Molecular Innovations, Inc. The format is biochemical. The settings on record: read-out: Inhibition Rate of PAI-1 Activity (%). The method, then: 0.1 M HEPES, 0.1 M NaCl. 1 mM EDTA. 0.1 % Polyethylene glycol 8,000 (Hampton Research Corporation),
2 mM Dimethyldecylphoshine oxide [Apo-10] (Fluka Corporation)

The structures appear in SMILES notation.

Chain of recombinant human PAI-1 (P05121 24-402): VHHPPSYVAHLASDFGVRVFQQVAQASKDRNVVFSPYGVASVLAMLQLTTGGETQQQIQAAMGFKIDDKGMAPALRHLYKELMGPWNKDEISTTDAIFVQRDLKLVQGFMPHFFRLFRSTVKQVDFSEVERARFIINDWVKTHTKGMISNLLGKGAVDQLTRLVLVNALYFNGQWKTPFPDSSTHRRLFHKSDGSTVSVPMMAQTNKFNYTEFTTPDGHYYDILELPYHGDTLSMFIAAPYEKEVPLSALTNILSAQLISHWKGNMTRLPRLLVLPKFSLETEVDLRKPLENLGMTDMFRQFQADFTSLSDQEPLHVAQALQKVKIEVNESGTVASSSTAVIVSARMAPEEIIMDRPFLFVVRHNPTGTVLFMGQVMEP

As for `CC(C)(C)c1cccc(Oc2cc(-c3ccc(OC(F)(F)F)cc3)ccc2CCC(=O)O)c1` [Compound 336], the inhibition at 0.1 µM stood at 0%, the inhibition at 0.3 µM came to 5%, the inhibition at 1 µM was 45% and the inhibition at 3 µM was greater than 99%.

For `Cc1cc(C)cc(Oc2cc(-c3ccc(C(C)(C)C)cc3)ccc2CCC(=O)O)c1` [Compound 499], the inhibition at 0.1 µM was determined as 15%, the inhibition at 0.3 µM stood at 14%, the inhibition at 1 µM was 77% and the inhibition at 3 µM stood at 98%.

Turning to `CCCCCCCCCCN(C(=O)C(=O)O)c1ccc(-c2ccc(OC(F)(F)F)cc2)cc1` [Compound 669], the inhibition at 0.1 µM turned out to be 28%, the inhibition at 0.3 µM came out at 34%, the inhibition at 1 µM was greater than 99% and the inhibition at 3 µM is greater than 99%.

Take `CCCCc1ccc(-c2ccc(OCC(=O)O)c(Oc3ccc(C(C)(C)C)cc3)c2)cc1` [Compound 443]: the inhibition at 0.1 µM is 7%, the inhibition at 0.3 µM turned out to be 8%, the inhibition at 1 µM is 76% and the inhibition at 3 µM is greater than 99%.

For the molecule `CCCCCCCCCOc1cc(-c2ccc(OC(F)(F)F)cc2)ccc1N(CCCCc1ccccc1)C(=O)C(=O)O` [Compound 380], the inhibition at 0.1 µM is 76%, the inhibition at 0.3 µM was 96%, the inhibition at 1 µM was 97% and the inhibition at 3 µM was greater than 99%.

`Cc1cc(C)cc(-c2ccc(CCC(=O)O)c(Oc3ccc(C(C)(C)C)cc3)c2)c1` [Compound 498]: the inhibition at 0.1 µM stood at 1%, the inhibition at 0.3 µM turned out to be 4%, the inhibition at 1 µM came to 44% and the inhibition at 3 µM was greater than 99%.

Regarding `CCCCc1ccc(Oc2cc(-c3ccc(OC(F)(F)F)cc3)ccc2CCC(=O)O)cc1` [Compound 512], the inhibition at 0.1 µM came to 18%, the inhibition at 0.3 µM was 41%, the inhibition at 1 µM came out at 96% and the inhibition at 3 µM was found to be 98%.

For the molecule `CC(C)(C)c1ccc(Sc2cc(-c3ccc(OC(F)(F)F)cc3)ccc2/C=C\C(=O)O)cc1` [Compound 529], the inhibition at 0.1 µM was 18%, the inhibition at 0.3 µM was determined as 29%, the inhibition at 1 µM worked out at 94% and the inhibition at 3 µM is greater than 99%.

For the molecule `O=C(O)C(=O)N(CCCCc1ccccc1)c1cc(-c2ccc(OC(F)(F)F)cc2)ccc1OCCCCCO` [Compound 676], the inhibition at 0.1 µM came out at 7%, the inhibition at 0.3 µM worked out at 4%, the inhibition at 1 µM amounted to 60% and the inhibition at 3 µM is greater than 99%.

In the case of `CCCCCCCCCOc1cc(N(Cc2ccc(C(C)(C)C)cc2)C(=O)C(=O)O)ccc1-c1ccc(OC(F)(F)F)cc1` [Compound 388], the inhibition at 0.1 µM stood at 75%, the inhibition at 0.3 µM was greater than 99%, the inhibition at 1 µM was greater than 99% and the inhibition at 3 µM was greater than 99%.

On to `CCCCCOc1ccc(-c2cccc(OC(F)(F)F)c2)cc1N(CCCCc1ccccc1)C(=O)C(=O)O` [Compound 391], for which the inhibition at 0.1 µM is 10%, the inhibition at 0.3 µM was 8%, the inhibition at 1 µM was 69% and the inhibition at 3 µM amounted to 89%.

On to `CCCCCOc1ccc(-c2cccc(C)c2)cc1N(CCCCc1ccccc1)C(=O)C(=O)O` [Compound 379], for which the inhibition at 0.1 µM worked out at 14%, the inhibition at 0.3 µM came out at 17%, the inhibition at 1 µM turned out to be 78% and the inhibition at 3 µM turned out to be 92%.

Take `CC(C)(C)c1ccc(Oc2cc(-c3cc(Cl)ccc3Cl)ccc2/C=C/C(=O)O)cc1` [Compound 483]: the inhibition at 0.1 µM came out at 0%, the inhibition at 0.3 µM was 8%, the inhibition at 1 µM came out at 76% and the inhibition at 3 µM is greater than 99%.

`CC(C)(C)c1ccc(Sc2cc(-c3ccc(OC(F)(F)F)cc3)ccc2CCC(=O)O)cc1` [Compound 517]: the inhibition at 0.1 µM was determined as 20%, the inhibition at 0.3 µM was found to be 50%, the inhibition at 1 µM was 95% and the inhibition at 3 µM is greater than 99%.

In the case of `CC(C)(C)OCCOc1ccc(-c2ccc(OC(F)(F)F)cc2)cc1N(CCCCc1ccccc1)C(=O)C(=O)O` [Compound 351], the inhibition at 0.1 µM came out at 2%, the inhibition at 0.3 µM came out at 7%, the inhibition at 1 µM was determined as 23% and the inhibition at 3 µM is 84%.

Take `CCCCOc1cccc(Oc2cc(-c3ccc(OC(F)(F)F)cc3)ccc2CCC(=O)O)c1` [Compound 472]: the inhibition at 0.1 µM was found to be 15%, the inhibition at 0.3 µM stood at 14%, the inhibition at 1 µM stood at 71% and the inhibition at 3 µM is greater than 99%.

Regarding `O=C(O)/C=C/c1ccc(-c2ccc(OC(F)(F)F)cc2)cc1Sc1ccccc1` [Compound 528], the inhibition at 0.1 µM was 8%, the inhibition at 0.3 µM turned out to be 12%, the inhibition at 1 µM came to 51% and the inhibition at 3 µM stood at 97%.

On to `CC(C)c1ccc(-c2ccc(OCC(=O)O)c(Oc3ccc(C(C)(C)C)cc3)c2)cc1` [Compound 441], for which the inhibition at 0.1 µM came out at 9%, the inhibition at 0.3 µM is 29%, the inhibition at 1 µM worked out at 89% and the inhibition at 3 µM was 98%.

Take `CCCCC(Oc1ccc(-c2cccc(C(F)(F)F)c2)cc1Oc1ccc(C(C)(C)C)cc1)C(=O)O` (stereo not shown) [Compound 320]: the inhibition at 0.1 µM stood at 1%, the inhibition at 0.3 µM was 9%, the inhibition at 1 µM is 70% and the inhibition at 3 µM was 98%.

In the case of `O=C(O)CCCCCCCCOc1ccc(-c2ccc(OC(F)(F)F)cc2)cc1N(CCCCc1ccccc1)C(=O)C(=O)O` [Compound 646], the inhibition at 0.1 µM turned out to be 4%, the inhibition at 0.3 µM stood at 15%, the inhibition at 1 µM amounted to 38% and the inhibition at 3 µM amounted to 86%.

Consider `CCCCC(Oc1cc(-c2ccc(OC(F)(F)F)cc2)ccc1Oc1ccc(C(C)(C)C)cc1)C(=O)O` (stereo not shown) [Compound 303], for which the inhibition at 0.1 µM came to 0%, the inhibition at 0.3 µM was 13%, the inhibition at 1 µM came to 87% and the inhibition at 3 µM turned out to be 94%.

Consider `CCCCCOc1ccc(-c2cc(C)cc(C)c2)cc1N(CCCCc1ccccc1)C(=O)C(=O)O` [Compound 672], for which the inhibition at 0.1 µM was 3%, the inhibition at 0.3 µM came to 15%, the inhibition at 1 µM was 92% and the inhibition at 3 µM is greater than 99%.

In the case of `CC(C)(C)c1ccc(Oc2cc(-c3cccc(OC(F)(F)F)c3)ccc2/C=C/C(=O)O)cc1` [Compound 503], the inhibition at 0.1 µM is 13%, the inhibition at 0.3 µM was found to be 27%, the inhibition at 1 µM turned out to be 97% and the inhibition at 3 µM worked out at 93%.

With `O=C(O)C(=O)N(CCCCc1ccccc1)c1cc(-c2ccc(OC(F)(F)F)cc2)ccc1OC1CCCCCC1` [Compound 659], the inhibition at 0.1 µM came out at 12%, the inhibition at 0.3 µM came to 26%, the inhibition at 1 µM is greater than 99% and the inhibition at 3 µM came out at 96%.

As to `CC(C)(C)c1ccc(Oc2cc(-c3cccc(C(F)(F)F)c3)ccc2CCC(=O)O)cc1` [Compound 332], the inhibition at 0.1 µM is 12%, the inhibition at 0.3 µM came to 4%, the inhibition at 1 µM came to 29% and the inhibition at 3 µM is greater than 99%.

Turning to `CC(C)(C)c1ccc(COc2ccc(N3CCN(c4ccc(OC(F)(F)F)cc4)CC3)cc2CCC(=O)O)cc1` [Compound 419], the inhibition at 1 µM was determined as 41%, the inhibition at 3 µM was found to be 93%, the inhibition at 10 µM turned out to be 98% and the inhibition at 25 µM was greater than 99%.

`CCCCCCCCCOc1cc(N(CCCCc2ccccc2)C(=O)C(=O)O)ccc1-c1ccc(OC(F)(F)F)cc1` [Compound 389]: the inhibition at 0.1 µM was found to be 65%, the inhibition at 0.3 µM was 97%, the inhibition at 1 µM is greater than 99% and the inhibition at 3 µM was greater than 99%.

With `CC(C)(C)c1ccc(Oc2ccc(-c3ccc(OC(F)(F)F)cc3)cc2OCC(=O)O)cc1` [Compound 302], the inhibition at 0.1 µM was 0%, the inhibition at 0.3 µM is 9%, the inhibition at 1 µM is 27% and the inhibition at 3 µM is 98%.

In the case of `CC(C)c1ccc(Sc2cc(-c3ccc(OC(F)(F)F)cc3)ccc2/C=C/C(=O)O)cc1` [Compound 516], the inhibition at 0.1 µM was 16%, the inhibition at 0.3 µM was 39%, the inhibition at 1 µM was 98% and the inhibition at 3 µM is greater than 99%.

As to `CC(C)(C)c1ccc(N(CC(=O)O)c2ccccc2Oc2ccc(OC(F)(F)F)cc2)cc1` [Compound 610], the inhibition at 1 µM is 49%, the inhibition at 3 µM was determined as 94%, the inhibition at 10 µM is 97% and the inhibition at 25 µM came out at 86%.

`CCCCCOc1ccc(-c2ccc(OC(F)(F)F)cc2)cc1N(CCCCc1ccc(Cl)cc1)C(=O)C(=O)O` [Compound 384]: the inhibition at 0.1 µM stood at 0%, the inhibition at 0.3 µM worked out at 11%, the inhibition at 1 µM was determined as 91% and the inhibition at 3 µM turned out to be 95%.

With `CC(C)(C)c1ccc(-c2ccc(/C=C/C(=O)O)c(Oc3ccc(OC(F)(F)F)cc3)c2)cc1` [Compound 478], the inhibition at 0.1 µM is 11%, the inhibition at 0.3 µM worked out at 33%, the inhibition at 1 µM came out at 90% and the inhibition at 3 µM is greater than 99%.

On to `CCC(CC)Oc1ccc(-c2ccc(OCC(=O)O)c(Oc3ccc(C(C)(C)C)cc3)c2)cc1` [Compound 447], for which the inhibition at 0.1 µM turned out to be 4%, the inhibition at 0.3 µM was 11%, the inhibition at 1 µM amounted to 89% and the inhibition at 3 µM is greater than 99%.

As to `CCC(CC)Oc1ccc(-c2ccc(/C=C/C(=O)O)c(Oc3ccc(C(C)(C)C)cc3)c2)cc1` [Compound 521], the inhibition at 0.1 µM amounted to 25%, the inhibition at 0.3 µM was 82%, the inhibition at 1 µM was greater than 99% and the inhibition at 3 µM was greater than 99%.
